Source: PubChem BioAssay (NCI)
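Assay format: 96-well plates, 48-hour exposure. GI50 is the concentration that inhibits growth by half. At the TGI there is no net growth.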

Assays:
Experiment in all cases: NCI tumour cell line growth inhibition, 48 h
A498 renal = tested on: A498 renal
SK-MEL-5 melanoma = tested on: SK-MEL-5 melanoma
SK-OV-3 ovarian = tested on: SK-OV-3 ovarian
SF-539 CNS = tested on: SF-539 CNS
EKVX NSCLC = tested on: EKVX NSCLC
UACC-62 melanoma = tested on: UACC-62 melanoma
OVCAR-8 ovarian = tested on: OVCAR-8 ovarian
SN12C renal = tested on: SN12C renal
NCI-H23 lung = tested on: NCI-H23 lung
NCI-H226 lung = tested on: NCI-H226 lung
SK-MEL-2 melanoma = tested on: SK-MEL-2 melanoma
HL-60(TB) leukemia = tested on: HL-60(TB) leukemia
RXF 393 renal = tested on: RXF 393 renal
COLO 205 colon = tested on: COLO 205 colon
T-47D breast = tested on: T-47D breast
M14 melanoma = tested on: M14 melanoma
MDA-MB-435 = tested on: MDA-MB-435
SNB-75 CNS = tested on: SNB-75 CNS
ACHN renal = tested on: ACHN renal
SF-295 CNS = tested on: SF-295 CNS
K-562 leukemia = tested on: K-562 leukemia
SNB-19 CNS = tested on: SNB-19 CNS
HCT-116 colon = tested on: HCT-116 colon
786-0 renal = tested on: 786-0 renal
NCI-H522 lung = tested on: NCI-H522 lung
MCF7 breast = tested on: MCF7 breast
HCC-2998 colon = tested on: HCC-2998 colon
U251 CNS = tested on: U251 CNS
IGROV1 ovarian = tested on: IGROV1 ovarian
CCRF-CEM leukemia = tested on: CCRF-CEM leukemia
MALME-3M melanoma = tested on: MALME-3M melanoma
LOX IMVI melanoma = tested on: LOX IMVI melanoma
CAKI-1 renal = tested on: CAKI-1 renal
MDA-MB-231 breast = tested on: MDA-MB-231 breast
HOP-62 NSCLC = tested on: HOP-62 NSCLC
HT29 colon = tested on: HT29 colon
UO-31 renal = tested on: UO-31 renal
MOLT-4 leukemia = tested on: MOLT-4 leukemia
TK-10 renal = tested on: TK-10 renal
NCI-H460 lung = tested on: NCI-H460 lung
KM12 colon = tested on: KM12 colon
NCI/ADR-RES ovarian = tested on: NCI/ADR-RES ovarian
HS 578T breast = tested on: HS 578T breast
RPMI-8226 leukemia = tested on: RPMI-8226 leukemia
HCT-15 colon = tested on: HCT-15 colon
SF-268 CNS = tested on: SF-268 CNS
PC-3 prostate = tested on: PC-3 prostate
OVCAR-5 ovarian = tested on: OVCAR-5 ovarian
A549 NSCLC = tested on: A549 NSCLC
UACC-257 melanoma = tested on: UACC-257 melanoma
HOP-92 NSCLC = tested on: HOP-92 NSCLC
DU-145 prostate = tested on: DU-145 prostate
SK-MEL-28 melanoma = tested on: SK-MEL-28 melanoma
BT-549 breast = tested on: BT-549 breast
OVCAR-4 ovarian = tested on: OVCAR-4 ovarian
OVCAR-3 ovarian = tested on: OVCAR-3 ovarian
SW-620 colon = tested on: SW-620 colon

SMILES: COc1cc2c(cc1OCCCCCN1CCN(c3cc(=O)oc4ccccc34)CC1)N=C[C@@H]1CCCN1C2=O
- GI50 (A498 renal): 220 nM
- TGI (A498 renal): 488 nM
- GI50 (SK-MEL-5 melanoma): 206 nM
- TGI (SK-MEL-5 melanoma): 481 nM
- GI50 (SK-OV-3 ovarian): 821 nM
- TGI (SK-OV-3 ovarian): > 41.3 µM
- GI50 (SF-539 CNS): 232 nM
- TGI (SF-539 CNS): 907 nM
- GI50 (EKVX NSCLC): 848 nM
- TGI (EKVX NSCLC): 4.65 µM
- GI50 (UACC-62 melanoma): 186 nM
- TGI (UACC-62 melanoma): 383 nM
- GI50 (OVCAR-8 ovarian): 293 nM
- TGI (OVCAR-8 ovarian): 19.9 µM
- GI50 (SN12C renal): 182 nM
- TGI (SN12C renal): 664 nM
- GI50 (NCI-H23 lung): 262 nM
- TGI (NCI-H23 lung): 1100 nM
- GI50 (NCI-H226 lung): 184 nM
- TGI (NCI-H226 lung): 485 nM
- GI50 (SK-MEL-2 melanoma): 198 nM
- TGI (SK-MEL-2 melanoma): 533 nM
- GI50 (HL-60(TB) leukemia): < 45.3 nM
- TGI (HL-60(TB) leukemia): 1120 nM
- GI50 (RXF 393 renal): 62.9 nM
- TGI (RXF 393 renal): 253 nM
- GI50 (COLO 205 colon): 42.2 nM
- TGI (COLO 205 colon): 280 nM
- TGI (T-47D breast): 2280 nM
- GI50 (M14 melanoma): 96.5 nM
- TGI (M14 melanoma): 338 nM
- GI50 (MDA-MB-435): 183 nM
- TGI (MDA-MB-435): 425 nM
- TGI (SNB-75 CNS): 343 nM
- GI50 (ACHN renal): 461 nM
- TGI (ACHN renal): 2550 nM
- GI50 (SF-295 CNS): 331 nM
- TGI (SF-295 CNS): 3.16 µM
- GI50 (K-562 leukemia): < 41.1 nM
- TGI (K-562 leukemia): 3.06 µM
- GI50 (SNB-19 CNS): 294 nM
- TGI (SNB-19 CNS): 12.5 µM
- GI50 (HCT-116 colon): 88.9 nM
- TGI (HCT-116 colon): 336 nM
- GI50 (786-0 renal): 147 nM
- TGI (786-0 renal): 468 nM
- GI50 (NCI-H522 lung): < 42.8 nM
- TGI (NCI-H522 lung): 170 nM
- GI50 (MCF7 breast): 93 nM
- TGI (MCF7 breast): 4.95 µM
- GI50 (HCC-2998 colon): 176 nM
- TGI (HCC-2998 colon): 398 nM
- GI50 (U251 CNS): 63.3 nM
- TGI (U251 CNS): 2320 nM
- GI50 (IGROV1 ovarian): 83 nM
- TGI (IGROV1 ovarian): 401 nM
- GI50 (CCRF-CEM leukemia): 124 nM
- TGI (CCRF-CEM leukemia): 364 nM
- GI50 (MALME-3M melanoma): 219 nM
- TGI (MALME-3M melanoma): 536 nM
- GI50 (LOX IMVI melanoma): < 38.7 nM
- TGI (LOX IMVI melanoma): 450 nM
- GI50 (CAKI-1 renal): 556 nM
- TGI (CAKI-1 renal): 1860 nM
- GI50 (MDA-MB-231 breast): 27.7 nM
- TGI (MDA-MB-231 breast): 730 nM
- GI50 (HOP-62 NSCLC): 151 nM
- TGI (HOP-62 NSCLC): 438 nM
- GI50 (HT29 colon): 84.1 nM
- TGI (HT29 colon): 610 nM
- GI50 (UO-31 renal): 690 nM
- TGI (UO-31 renal): 11.4 µM
- GI50 (MOLT-4 leukemia): 11.7 nM
- TGI (MOLT-4 leukemia): 1410 nM
- GI50 (TK-10 renal): 175 nM
- TGI (TK-10 renal): 13 µM
- GI50 (NCI-H460 lung): 131 nM
- TGI (NCI-H460 lung): 9.99 µM
- GI50 (KM12 colon): 268 nM
- TGI (KM12 colon): 1380 nM
- GI50 (NCI/ADR-RES ovarian): 1910 nM
- TGI (NCI/ADR-RES ovarian): > 22 µM
- GI50 (HS 578T breast): 201 nM
- TGI (HS 578T breast): 1840 nM
- GI50 (RPMI-8226 leukemia): < 39 nM
- TGI (RPMI-8226 leukemia): 285 nM
- GI50 (HCT-15 colon): 1020 nM
- TGI (HCT-15 colon): 7.27 µM
- TGI (SF-268 CNS): 2470 nM
- GI50 (PC-3 prostate): 91.8 nM
- TGI (PC-3 prostate): 2340 nM
- GI50 (OVCAR-5 ovarian): 407 nM
- TGI (OVCAR-5 ovarian): 18.6 µM
- GI50 (A549 NSCLC): 2560 nM
- TGI (A549 NSCLC): 11.5 µM
- GI50 (UACC-257 melanoma): 1590 nM
- TGI (UACC-257 melanoma): 5.69 µM
- TGI (HOP-92 NSCLC): 178 nM
- GI50 (DU-145 prostate): 221 nM
- TGI (DU-145 prostate): 3.55 µM
- GI50 (SK-MEL-28 melanoma): 437 nM
- TGI (SK-MEL-28 melanoma): 1340 nM
- GI50 (BT-549 breast): 158 nM
- TGI (BT-549 breast): 778 nM
- GI50 (OVCAR-4 ovarian): 358 nM
- TGI (OVCAR-4 ovarian): 1710 nM
- GI50 (OVCAR-3 ovarian): 263 nM
- TGI (OVCAR-3 ovarian): 653 nM
- GI50 (SW-620 colon): 242 nM
- TGI (SW-620 colon): 6.66 µM
